Data published in paper PMC5564600 (Oncotarget, 2017).
Where two headings read alike, the source gives them in different places.

Legend:
Assay in all cases: biochemical
Assay type in all cases: binding
[1] = target: T1, panel of 442 kinases (Homo sapiens, UniProt O43293); details: DAPK3; for remaining activity at 1 µM: read-out: % of control at 1 µM
T1 construct: purchased Ambit Biosciences (scanMAXX KINOMEscan)

[2] = target: T2, panel of 442 kinases (Homo sapiens, UniProt P00533, L858R/T790M); details: EGFR(L858R,T790M); for remaining activity at 1 µM: read-out: % of control at 1 µM
T2 construct: purchased Ambit Biosciences (scanMAXX KINOMEscan)
T2 sequence (P00533 25-1210 T790M/L858R): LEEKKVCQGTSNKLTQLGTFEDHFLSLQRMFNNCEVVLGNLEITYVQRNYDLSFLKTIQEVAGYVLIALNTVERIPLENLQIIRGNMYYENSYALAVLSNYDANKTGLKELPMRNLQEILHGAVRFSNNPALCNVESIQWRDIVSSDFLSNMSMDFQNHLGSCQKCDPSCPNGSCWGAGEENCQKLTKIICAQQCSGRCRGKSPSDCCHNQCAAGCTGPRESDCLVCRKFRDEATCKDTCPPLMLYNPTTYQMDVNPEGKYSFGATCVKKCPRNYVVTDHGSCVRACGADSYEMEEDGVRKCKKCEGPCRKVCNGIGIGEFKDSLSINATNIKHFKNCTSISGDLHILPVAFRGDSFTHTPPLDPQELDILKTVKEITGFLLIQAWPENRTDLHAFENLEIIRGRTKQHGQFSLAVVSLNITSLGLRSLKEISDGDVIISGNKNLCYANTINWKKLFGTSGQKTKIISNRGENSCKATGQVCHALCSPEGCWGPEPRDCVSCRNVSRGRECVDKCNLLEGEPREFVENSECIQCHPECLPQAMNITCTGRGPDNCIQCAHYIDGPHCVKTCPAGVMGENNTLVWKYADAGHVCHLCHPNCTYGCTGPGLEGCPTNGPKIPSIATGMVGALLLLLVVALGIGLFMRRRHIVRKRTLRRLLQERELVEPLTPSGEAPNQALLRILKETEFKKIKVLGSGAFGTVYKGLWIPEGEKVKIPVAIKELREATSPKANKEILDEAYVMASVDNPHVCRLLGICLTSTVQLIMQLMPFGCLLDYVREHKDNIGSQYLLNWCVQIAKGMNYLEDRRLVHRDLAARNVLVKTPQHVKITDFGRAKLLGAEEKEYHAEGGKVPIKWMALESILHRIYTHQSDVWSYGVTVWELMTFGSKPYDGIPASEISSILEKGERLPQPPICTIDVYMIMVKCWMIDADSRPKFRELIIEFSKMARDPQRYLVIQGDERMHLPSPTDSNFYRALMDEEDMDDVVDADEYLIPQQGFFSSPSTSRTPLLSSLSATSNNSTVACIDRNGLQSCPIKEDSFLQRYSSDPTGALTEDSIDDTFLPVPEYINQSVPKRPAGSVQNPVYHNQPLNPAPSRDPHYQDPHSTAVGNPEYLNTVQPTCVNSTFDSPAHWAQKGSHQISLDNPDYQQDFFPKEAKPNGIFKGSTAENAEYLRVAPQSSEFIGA

[3] = target: T3, panel of 442 kinases (Homo sapiens, UniProt P06239); details: kinase LCK; for remaining activity at 1 µM: read-out: % of control at 1 µM
T3 construct: purchased Ambit Biosciences (scanMAXX KINOMEscan)
T3 sequence (P06239 whole entry): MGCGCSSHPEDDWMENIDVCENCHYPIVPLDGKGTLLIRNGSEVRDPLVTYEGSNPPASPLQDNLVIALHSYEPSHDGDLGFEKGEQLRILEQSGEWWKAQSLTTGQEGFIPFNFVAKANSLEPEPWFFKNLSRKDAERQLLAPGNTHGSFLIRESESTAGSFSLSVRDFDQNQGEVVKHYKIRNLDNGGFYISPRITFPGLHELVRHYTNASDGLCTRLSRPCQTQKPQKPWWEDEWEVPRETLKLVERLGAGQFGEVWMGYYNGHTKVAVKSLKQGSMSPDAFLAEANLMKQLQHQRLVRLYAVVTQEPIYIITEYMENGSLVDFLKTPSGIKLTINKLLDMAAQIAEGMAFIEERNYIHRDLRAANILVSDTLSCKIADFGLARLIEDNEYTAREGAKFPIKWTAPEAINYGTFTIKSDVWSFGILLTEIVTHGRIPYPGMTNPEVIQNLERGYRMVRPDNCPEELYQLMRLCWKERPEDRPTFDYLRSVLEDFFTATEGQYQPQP

[4] = target: T4, panel of 442 kinases (Homo sapiens, UniProt P11802); details: for remaining activity at 1 µM: read-out: % of control at 1 µM; for remaining activity at 10 µM: read-out: % of control at 10 µM
T4 construct: purchased Ambit Biosciences (scanMAXX KINOMEscan)
T4 sequence (P11802 whole entry): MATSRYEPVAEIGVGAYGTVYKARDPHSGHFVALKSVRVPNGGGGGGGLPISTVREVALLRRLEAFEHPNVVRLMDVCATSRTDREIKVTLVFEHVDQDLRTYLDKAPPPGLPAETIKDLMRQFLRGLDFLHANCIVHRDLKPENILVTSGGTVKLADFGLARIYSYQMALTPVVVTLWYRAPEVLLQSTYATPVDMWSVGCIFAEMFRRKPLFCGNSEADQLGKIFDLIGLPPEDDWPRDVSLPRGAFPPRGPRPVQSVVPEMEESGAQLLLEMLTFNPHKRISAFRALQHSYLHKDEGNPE

[5] = target: T5, panel of 442 kinases (Homo sapiens, UniProt P19784); details: CSNK2A2; for remaining activity at 1 µM: read-out: % of control at 1 µM
T5 construct: purchased Ambit Biosciences (scanMAXX KINOMEscan)

[6] = target: T6, panel of 442 kinases (Homo sapiens, UniProt P36894); details: BMPR1A; for remaining activity at 1 µM: read-out: % of control at 1 µM
T6 construct: purchased Ambit Biosciences (scanMAXX KINOMEscan)
T6 sequence (P36894 24-532): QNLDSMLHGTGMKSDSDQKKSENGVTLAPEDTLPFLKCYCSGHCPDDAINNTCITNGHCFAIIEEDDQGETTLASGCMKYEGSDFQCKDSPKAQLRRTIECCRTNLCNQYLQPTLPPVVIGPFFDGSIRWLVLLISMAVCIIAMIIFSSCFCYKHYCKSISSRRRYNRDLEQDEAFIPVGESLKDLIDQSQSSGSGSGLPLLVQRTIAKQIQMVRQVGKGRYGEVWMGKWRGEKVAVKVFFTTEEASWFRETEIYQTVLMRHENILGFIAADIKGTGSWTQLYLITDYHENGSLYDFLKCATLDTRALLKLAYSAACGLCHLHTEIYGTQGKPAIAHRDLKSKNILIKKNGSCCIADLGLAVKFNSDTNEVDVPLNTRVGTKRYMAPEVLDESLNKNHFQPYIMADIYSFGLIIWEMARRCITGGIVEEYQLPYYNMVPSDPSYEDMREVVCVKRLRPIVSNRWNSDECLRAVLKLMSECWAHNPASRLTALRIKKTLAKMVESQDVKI

[7] = target: T7, panel of 442 kinases (Homo sapiens, UniProt P36896); details: ACVR1B; for remaining activity at 1 µM: read-out: % of control at 1 µM
T7 construct: purchased Ambit Biosciences (scanMAXX KINOMEscan)
T7 sequence (P36896 24-505): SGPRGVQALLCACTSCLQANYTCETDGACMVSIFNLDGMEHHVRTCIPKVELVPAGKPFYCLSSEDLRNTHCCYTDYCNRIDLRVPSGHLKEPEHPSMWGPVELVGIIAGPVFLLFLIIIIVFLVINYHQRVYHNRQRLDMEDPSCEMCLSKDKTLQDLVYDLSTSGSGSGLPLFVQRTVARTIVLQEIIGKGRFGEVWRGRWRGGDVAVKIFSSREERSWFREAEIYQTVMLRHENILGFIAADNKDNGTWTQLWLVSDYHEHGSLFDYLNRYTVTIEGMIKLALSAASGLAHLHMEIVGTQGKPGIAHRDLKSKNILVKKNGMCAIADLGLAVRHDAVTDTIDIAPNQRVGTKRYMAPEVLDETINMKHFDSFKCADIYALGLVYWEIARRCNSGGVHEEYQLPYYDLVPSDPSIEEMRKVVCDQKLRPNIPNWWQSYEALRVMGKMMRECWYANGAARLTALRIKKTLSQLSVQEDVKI

[8] = target: T8, panel of 442 kinases (Homo sapiens, UniProt P54646); details: AMPK-alpha2; for remaining activity at 1 µM: read-out: % of control at 1 µM
T8 construct: purchased Ambit Biosciences (scanMAXX KINOMEscan)

[9] = target: T9, panel of 442 kinases (Homo sapiens, UniProt P57058); details: kinase HUNK; for remaining activity at 1 µM: read-out: % of control at 1 µM
T9 construct: purchased Ambit Biosciences (scanMAXX KINOMEscan)
T9 sequence (P57058 1-714): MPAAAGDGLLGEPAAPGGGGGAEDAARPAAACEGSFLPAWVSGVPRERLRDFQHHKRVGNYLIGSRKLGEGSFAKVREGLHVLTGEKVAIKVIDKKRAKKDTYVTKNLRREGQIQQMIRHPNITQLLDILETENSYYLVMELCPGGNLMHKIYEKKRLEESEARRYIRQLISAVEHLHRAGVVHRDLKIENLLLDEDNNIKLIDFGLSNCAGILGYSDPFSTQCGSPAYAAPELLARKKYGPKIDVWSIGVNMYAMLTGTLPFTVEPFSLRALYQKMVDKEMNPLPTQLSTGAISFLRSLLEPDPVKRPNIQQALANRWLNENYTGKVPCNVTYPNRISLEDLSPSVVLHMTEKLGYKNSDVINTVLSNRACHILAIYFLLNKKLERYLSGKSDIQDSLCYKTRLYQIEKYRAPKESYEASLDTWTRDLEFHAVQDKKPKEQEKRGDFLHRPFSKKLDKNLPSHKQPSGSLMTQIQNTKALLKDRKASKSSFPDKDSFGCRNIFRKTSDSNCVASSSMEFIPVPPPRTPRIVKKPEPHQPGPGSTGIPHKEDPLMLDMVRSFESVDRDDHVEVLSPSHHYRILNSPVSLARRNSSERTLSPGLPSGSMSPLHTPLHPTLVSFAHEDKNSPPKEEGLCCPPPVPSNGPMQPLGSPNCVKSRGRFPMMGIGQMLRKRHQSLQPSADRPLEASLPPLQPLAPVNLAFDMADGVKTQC

[10] = target: T10, panel of 442 kinases (Homo sapiens, UniProt Q02750); details: kinase MEK1; for remaining activity at 1 µM: read-out: % of control at 1 µM
T10 construct: purchased Ambit Biosciences (scanMAXX KINOMEscan)
T10 sequence (Q02750 whole entry): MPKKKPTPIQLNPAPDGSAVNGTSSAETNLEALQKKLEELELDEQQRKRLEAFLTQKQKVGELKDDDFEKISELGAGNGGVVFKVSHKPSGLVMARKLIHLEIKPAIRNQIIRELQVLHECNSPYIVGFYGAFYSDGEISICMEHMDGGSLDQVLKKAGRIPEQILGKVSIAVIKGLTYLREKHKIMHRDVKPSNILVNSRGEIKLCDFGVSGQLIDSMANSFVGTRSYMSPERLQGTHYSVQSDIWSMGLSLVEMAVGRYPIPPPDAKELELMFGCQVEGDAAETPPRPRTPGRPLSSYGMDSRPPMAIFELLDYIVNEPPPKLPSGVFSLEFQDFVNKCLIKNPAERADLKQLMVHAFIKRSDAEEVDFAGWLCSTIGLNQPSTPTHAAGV

[11] = target: T11, panel of 442 kinases (Homo sapiens, UniProt Q07002); details: kinase PCTK3; for remaining activity at 1 µM: read-out: % of control at 1 µM
T11 construct: purchased Ambit Biosciences (scanMAXX KINOMEscan)
T11 sequence (Q07002 whole entry): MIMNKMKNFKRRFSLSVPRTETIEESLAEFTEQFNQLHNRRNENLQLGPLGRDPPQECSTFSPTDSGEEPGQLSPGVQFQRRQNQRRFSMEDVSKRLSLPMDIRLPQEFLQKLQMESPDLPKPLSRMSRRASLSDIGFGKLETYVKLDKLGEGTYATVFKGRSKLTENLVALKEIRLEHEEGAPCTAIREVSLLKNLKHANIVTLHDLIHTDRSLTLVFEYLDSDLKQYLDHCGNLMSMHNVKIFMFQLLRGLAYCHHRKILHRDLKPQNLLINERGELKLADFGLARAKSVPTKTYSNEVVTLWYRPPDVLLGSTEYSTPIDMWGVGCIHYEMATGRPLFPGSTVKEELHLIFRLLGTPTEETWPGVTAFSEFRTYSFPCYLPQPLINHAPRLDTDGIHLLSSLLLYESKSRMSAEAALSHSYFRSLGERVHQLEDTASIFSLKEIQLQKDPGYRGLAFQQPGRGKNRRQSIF

[12] = target: T12, panel of 442 kinases (Homo sapiens, UniProt Q13464); details: kinase ROCK1; for remaining activity at 1 µM: read-out: ROCK1 (% of control at 1 µM)
T12 construct: purchased Ambit Biosciences (scanMAXX KINOMEscan)
T12 sequence (Q13464 whole entry): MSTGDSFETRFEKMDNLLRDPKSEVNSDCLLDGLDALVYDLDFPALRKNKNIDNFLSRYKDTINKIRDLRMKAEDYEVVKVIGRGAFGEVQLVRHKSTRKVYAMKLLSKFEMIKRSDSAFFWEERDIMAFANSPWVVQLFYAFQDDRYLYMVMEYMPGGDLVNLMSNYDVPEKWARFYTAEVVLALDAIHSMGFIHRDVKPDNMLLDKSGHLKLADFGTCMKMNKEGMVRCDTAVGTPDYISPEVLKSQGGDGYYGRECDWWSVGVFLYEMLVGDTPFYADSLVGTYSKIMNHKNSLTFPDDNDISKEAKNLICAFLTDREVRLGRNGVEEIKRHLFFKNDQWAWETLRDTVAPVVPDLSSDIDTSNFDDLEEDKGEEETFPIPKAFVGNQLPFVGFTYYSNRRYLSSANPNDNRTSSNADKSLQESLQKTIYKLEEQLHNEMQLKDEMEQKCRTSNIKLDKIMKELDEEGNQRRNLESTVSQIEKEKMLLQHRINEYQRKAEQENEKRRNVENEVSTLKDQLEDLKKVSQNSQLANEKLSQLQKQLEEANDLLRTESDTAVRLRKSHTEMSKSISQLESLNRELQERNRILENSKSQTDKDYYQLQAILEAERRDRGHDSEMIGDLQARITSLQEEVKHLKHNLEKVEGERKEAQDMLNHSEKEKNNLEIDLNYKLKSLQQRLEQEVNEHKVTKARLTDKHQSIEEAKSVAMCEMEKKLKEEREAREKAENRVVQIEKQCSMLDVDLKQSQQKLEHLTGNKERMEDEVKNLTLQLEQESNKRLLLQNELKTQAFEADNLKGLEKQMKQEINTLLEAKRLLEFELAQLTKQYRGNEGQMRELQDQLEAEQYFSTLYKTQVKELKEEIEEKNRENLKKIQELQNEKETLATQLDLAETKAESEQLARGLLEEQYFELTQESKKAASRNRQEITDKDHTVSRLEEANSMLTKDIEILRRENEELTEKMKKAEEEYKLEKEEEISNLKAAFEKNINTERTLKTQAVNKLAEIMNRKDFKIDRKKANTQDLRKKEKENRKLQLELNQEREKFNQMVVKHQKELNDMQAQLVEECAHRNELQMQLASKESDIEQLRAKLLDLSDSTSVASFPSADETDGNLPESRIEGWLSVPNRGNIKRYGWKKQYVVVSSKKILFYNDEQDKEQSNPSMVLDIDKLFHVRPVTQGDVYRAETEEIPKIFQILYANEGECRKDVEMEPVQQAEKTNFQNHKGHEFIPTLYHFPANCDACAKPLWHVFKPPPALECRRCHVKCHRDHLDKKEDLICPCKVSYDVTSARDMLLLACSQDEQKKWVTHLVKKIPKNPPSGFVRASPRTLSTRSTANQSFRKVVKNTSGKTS

[13] = 10 µM, read-out: % of control at 10 µM

Row | SMILES | remaining activity at 1 µM [1] [%] | remaining activity at 1 µM [2] [%] | remaining activity at 1 µM [3] [%] | remaining activity at 1 µM ([4]; CDK4-cyclinD1) [%] | remaining activity at 1 µM ([4]; CDK4-cyclinD3) [%] | remaining activity at 1 µM [5] [%] | remaining activity at 1 µM [6] [%] | remaining activity at 1 µM [7] [%] | remaining activity at 1 µM [8] [%] | remaining activity at 1 µM [9] [%] | remaining activity at 1 µM [10] [%] | remaining activity at 1 µM [11] [%] | remaining activity at 1 µM [12] [%] | other results
1 | Nc1cc(C(F)(F)F)c(-c2cc(N3CCOCC3)nc(N3CCOCC3)n2)cn1 [Buparlisib] | 100 | 100 | 100 | 82 | 91 | 84 | 100 | 87 | 100 | 100 | 100 | 100 | 86 | remaining activity at 10 µM [1, 13]: 100%; remaining activity at 10 µM [2, 13]: 100%; remaining activity at 10 µM [3, 13]: 100%; remaining activity at 10 µM ([4]; CDK4-cyclinD1): 100%; remaining activity at 10 µM ([4]; CDK4-cyclinD3): 100%; remaining activity at 10 µM [5, 13]: 75%; remaining activity at 10 µM [6, 13]: 100%; remaining activity at 10 µM [7, 13]: 83%; remaining activity at 10 µM [8, 13]: 100%; remaining activity at 10 µM [9, 13]: 100%; remaining activity at 10 µM [10, 13]: 100%; remaining activity at 10 µM [11, 13]: 87%; remaining activity at 10 µM ([12]; 10 µM, read-out: ROCK1 (% of control at 10 µM)): 80%
2 | Cn1c(=O)n(-c2ccc(C(C)(C)C#N)cc2)c2c3cc(-c4cnc5ccccc5c4)ccc3ncc21 [Dactolisib, 2-methyl-2-[4-(3-methyl-2-oxo-8-quinolin-3-yl-2,3-dihydroimidazo[4,5-c]quinolin-1-yl)-phenyl] propionitrile] | 100 | 100 | 88 | 100 | 97 | 99 | 98 | 100 | 100 | 93 | 94 | 94 | 52 | 
3 | COc1ncc(-c2ccc3nccc(-c4ccnnc4)c3c2)cc1NS(=O)(=O)c1ccc(F)cc1F [Omipalisib] | 100 | 100 | 100 | 100 | 100 | 75 | 100 | 100 | 99 | 74 | 100 | 100 | 88 | 
4 | FC(F)c1nc2ccccc2n1-c1nc(N2CCOCC2)nc(N2CCOCC2)n1 [ZSTK474, 2-(difluoromethyl)-1-[4,6-di(4-morpholinyl)-1,3,5-triazin-2-yl]-1H-benzimidazole] | 100 | 100 | 100 | 90 | 100 | 88 | 58 | 60 | 100 | 100 | 100 | 100 | 75 | 
